Laboratory results taken from article PMC8637530, “Modulatory Actions of the Glycine Receptor β Subunit on the Positive Allosteric Modulation of Ethanol in α2 Containing Receptors” (Frontiers in Molecular Neuroscience, 2021).

Assays:
Assay in all cases: whole-cell patch clamp, HEK293
Type in all cases: cell-based
Settings in all cases: -60 mV, 20-24 °C, pH 7.4; agonist
[1] = test system: T1, α1β GlyR (heteromeric)
T1 construct: gene GLRA1; recombinant heteropentamer in HEK293 cells, excess beta cDNA (1 μg alpha/EGFP plus 4 μg beta)
From the text: whole-cell patch clamp, HEK293 on α1β GlyR (heteromeric)

[2] = test system: T2, α2 GlyR (homomeric)
T2 construct: gene GLRA2; recombinant homomeric receptor expressed in HEK293 cells
From the text: whole-cell patch clamp, HEK293 on α2 GlyR (homomeric)

[3] = test system: T3, α1 GlyR (homomeric)
T3 construct: gene GLRA1; recombinant homomeric receptor expressed in HEK293 cells; EGFP co-transfected
From the text: whole-cell patch clamp, HEK293 on α1 GlyR (homomeric)

In the case of `NCC(=O)O` [Glycine], the EC50 [1] is reported as […], the EC50 [2] is reported as 86 ± 2 µM and the EC50 [3] is reported as […].
